Results as given in patent publication US6284785A, “1-arenesulfonyl-2-aryl-pyrrolidine and pyridine derivatives” (Hoffmann- La Roche Inc., priority 1999, dated 2001).
Counter-ions that a name gives are not always drawn.

Molecular target: T1, rat mGlu 1a receptor (Rattus norvegicus, UniProt P23385)
T1 construct: expressed in transfected cells; host or cells: EBNA cells (transient transfection)
Assay: [Ca2+]i measurements (FLIPR, Fluo-3 AM) on mGlu 1a transfected EBNA cells; agonist or antagonist (against 10 μM glutamate)
Type: cell-based
Details: for Remarks (agonist / antagonist): table of substituents of the Examples, column Remarks; for agonist/antagonist: activity-data table; for EC50: agonist, activation of mGlu 1a in EBNA cells, read-out: IC50 (compounds marked agonist)
Protocol: cDNA encoding rat mGlu 1a receptor obtained from Prof. Nakanishi (Kyoto, Japan) was transiently tranfected into EBNA cells using a procedure described by Schlaeger et. al, New Dev. New Appl. Anim Cell Techn., Proc. ESACT Meet., 15th (1998), 105-112 and 117-120. [Ca^2+ ]i measurements were performed on mGlu 1a transfected EBNA cells after incubation of the cells with Fluo-3 AM (0.5 μM final concentration) for 1hour at 37° C. followed by 4 washes with assay buffer (DMEM supplemented with Hank's salt and 20 mM HEPES. [Ca^2+ ]i measurements were done using a fluorometric imaging plate reader (FLIPR, Molecular Devices Corporation, La Jolla, Calif. USA). When compounds were evaluated as antagonists they were tested against 10 μM glutamate as agonist.
The inhibition (antagonists) or activation (agonists) curves were fitted with a four parameter logistic equation giving EC50, IC50, and Hill coefficient using the iterative non linear curve fitting software Origin (Microcal Software Inc., Northampton, Mass., USA).

T1 sequence (P23385 19-1199): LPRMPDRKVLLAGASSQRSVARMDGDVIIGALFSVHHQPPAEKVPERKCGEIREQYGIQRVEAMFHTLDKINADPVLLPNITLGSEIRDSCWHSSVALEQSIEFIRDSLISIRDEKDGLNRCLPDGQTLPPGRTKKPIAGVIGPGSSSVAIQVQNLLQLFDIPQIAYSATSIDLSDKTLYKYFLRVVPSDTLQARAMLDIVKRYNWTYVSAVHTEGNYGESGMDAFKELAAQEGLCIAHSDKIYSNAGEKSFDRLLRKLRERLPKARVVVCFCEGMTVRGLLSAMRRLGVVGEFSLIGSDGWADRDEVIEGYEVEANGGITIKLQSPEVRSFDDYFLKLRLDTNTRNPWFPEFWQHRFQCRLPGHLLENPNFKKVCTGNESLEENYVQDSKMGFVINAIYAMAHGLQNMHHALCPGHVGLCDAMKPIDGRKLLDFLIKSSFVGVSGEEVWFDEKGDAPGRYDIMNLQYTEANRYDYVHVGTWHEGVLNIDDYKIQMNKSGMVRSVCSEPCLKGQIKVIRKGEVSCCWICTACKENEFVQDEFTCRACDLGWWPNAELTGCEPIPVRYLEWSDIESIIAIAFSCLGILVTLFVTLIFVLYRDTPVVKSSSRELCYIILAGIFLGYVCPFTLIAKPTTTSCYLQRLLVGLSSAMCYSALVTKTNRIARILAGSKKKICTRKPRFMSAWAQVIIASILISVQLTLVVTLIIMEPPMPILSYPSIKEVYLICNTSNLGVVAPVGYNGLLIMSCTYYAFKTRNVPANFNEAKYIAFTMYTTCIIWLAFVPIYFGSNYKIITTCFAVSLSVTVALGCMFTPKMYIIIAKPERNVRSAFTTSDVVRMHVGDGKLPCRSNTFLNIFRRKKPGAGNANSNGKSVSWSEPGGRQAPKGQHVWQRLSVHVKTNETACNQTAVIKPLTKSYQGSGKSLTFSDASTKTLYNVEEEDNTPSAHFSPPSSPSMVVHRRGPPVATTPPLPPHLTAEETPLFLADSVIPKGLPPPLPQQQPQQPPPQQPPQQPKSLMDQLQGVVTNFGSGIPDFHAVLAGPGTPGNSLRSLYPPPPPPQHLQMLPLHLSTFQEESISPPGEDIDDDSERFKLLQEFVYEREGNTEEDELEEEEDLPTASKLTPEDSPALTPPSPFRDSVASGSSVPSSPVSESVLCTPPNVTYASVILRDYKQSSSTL

| SMILES | Remarks (agonist / antagonist) | agonistic / antagonistic activity to the mGlu receptor | agonist/antagonist | EC50 |
| --- | --- | --- | --- | --- |
| Cc1cc(C)c(S(=O)(=O)N2CCCC2c2ccc(F)cc2)c(C)c1 (racemic) [Example 61, (RS)-2-(4-Fluoro-phenyl)-1-(2,4,6-trimethyl-benzenesulfonyl)-pyrrolidine] | Antagonist | – | – | – |
| O=S(=O)(c1ccc(Cl)cc1)N1CCCC1c1cccc(Cl)c1 (racemic) [Example 32, (RS)-1-(4-Chloro-benzenesulfonyl)-2-(3-chloro-phenyl)-pyrrolidine] | Antagonist | – | – | – |
| Cc1ccc(S(=O)(=O)N2CCCC2c2cccc(Cl)c2)cc1 (racemic) [Example 31, (RS)-2-(3-Chloro-phenyl)-1-(toluene-4-sulfonyl)-pyrrolidine] | Agonist | agonistic activty | – | – |
| COc1ccc(S(=O)(=O)N2CCCC2c2ccc(F)cc2)cc1 (racemic) [Example 10, (RS)-2-(4-Fluoro-phenyl)-1-(4-methoxy-benzenesulfonyl)-pyrrolidine] | Antagonist | – | – | – |
| Cc1ccc(C2CCCN2S(=O)(=O)c2ccc(F)cc2)c(C)c1 (racemic) [Example 68, (RS)-2-(2,4-Dimethyl-phenyl)-1-(4-fluoro-benzenesulfonyl)-pyrrolidine] | Antagonist | – | – | – |
| Cc1cccc(C2CCCN2S(=O)(=O)c2ccc(F)cc2)c1 (racemic) [Example 30, (RS)-1-(4-Fluoro-benzenesulfonyl)-2-m-tolyl-pyrrolidine] | Antagonist | – | – | – |
| Cc1ccc(S(=O)(=O)N2CCCC2c2cccnc2)cc1 (racemic) [Example 83, (RS)-3-[1-(Toluene-4-sulfonyl)-pyrrolidin-2-yl]-pyridine] | Agonist | agonistic activty | – | – |
| Cc1ccc(S(=O)(=O)N2CCC(C)C2c2ccc(F)cc2)cc1 (racemic) [Example 88, Mixture of (2RS,3RS )- and (2RS,3SR)-2-(4-fluoro-phenyl)-3-methyl-1-(toluene-1-sufonyl)-pyrrolidine] | agonist | agonistic activty | agonist | 0.62 µM |
| Cc1ccc(S(=O)(=O)N2CCCC2c2ccncc2)cc1 (racemic) [Example 3, (RS)-4-[1-(Toluene-4-sulfonyl)-pyrrolidin-2-yl]-pyridine] | Agonist | – | agonist | 8.22 µM |
| Cc1ccc(S(=O)(=O)N2CCC[C@@H]2c2ccc(F)cc2)cc1 [Example 81, (R)-2-(4-Fluoro-phenyl)-1-(toluene-4-sulfonyl)-pyrrolidine] | Agonist | agonistic activty | – | – |
| CC1CCN(S(=O)(=O)c2ccc(Cl)cc2)C1c1ccc(F)cc1 (racemic) [Example 89, Mixture of (2RS,3RS)- and (2RS,3 SR)-1-(4-chloro-benzenesulfonyl)-2-(4-fluoro-phenyl)-3-methyl-pyrrolidine] | agonist | agonistic activty | – | – |
| CCc1ccc(C2CCCN2S(=O)(=O)c2ccc(Cl)cc2)cc1 (racemic) [Example 79, (RS)-2-(4-Ethyl-phenyl)-1-(4-chloro-benzenesulfonyl)-pyrrolidine] | Antagonist | – | – | – |
| O=S(=O)(c1ccc(Cl)cc1)N1CCC[C@H]1c1ccc(F)cc1 [Example 77, (S)-1-(4-Chloro-benzenesulfonyl)-2-(4-fluoro-phenyl)-pyrrolidine] | Agonist | agonistic activty | – | – |
| Cc1ccc(S(=O)(=O)N2CCCC2c2ccc(F)c(F)c2)cc1 (racemic) [Example 38, (RS)-2-(3,4-Difluoro-phenyl)-1-(toluene-4-sulfonyl)-pyrrolidine] | Agonist | agonistic activty | – | – |
| O=S(=O)(c1ccc(C(F)(F)F)cc1)N1CCCC1c1ccc(F)cc1 (racemic) [Example 60, (RS)-2-(4-Fluoro-phenyl)-1-(4-trifluoromethyl-benzenesulfonyl)-pyrrolidine] | Agonist | agonistic activty | – | – |
| O=S(=O)(c1ccccc1F)N1CCCC1c1ccc(F)cc1 (racemic) [Example 63, (RS)-1-(2-Fluoro-benzenesulfonyl)-2-(4-fluoro-phenyl)-pyrrolidine] | Antagonist | – | – | – |
| COc1ccc(C2CCCN2S(=O)(=O)c2ccc(Cl)cc2)cc1 (racemic) [Example 24, (RS)-1-(4-Chloro-benzenesulfonyl)-2-(4-methoxyl-phenyl)-pyrrolidine] | Antagonist | – | – | – |
| N#Cc1ccc(S(=O)(=O)N2CCCC2c2ccc(F)cc2)cc1 (racemic) [Example 33, (RS)-2-(4-Fluoro-phenyl)-1-(4-cyano-benzenesulfonyl)-pyrrolidine] | Antagonist | – | – | – |
| Cc1cccc(C2CCCN2S(=O)(=O)c2ccc(Cl)cc2)c1 (racemic) [Example 29, (RS)-1-(4-Chloro-benzenesulfonyl)-2-m-tolyl-pyrrolidine] | Agonist | agonistic activty | – | – |
| NCc1ccc(S(=O)(=O)N2CCCC2c2ccc(F)cc2)cc1 (racemic) [Example 87, (RS)-4-[2-(4-Fluoro-phenyl)-pyrrolidine-1-sulfonyl]-benzylamine fumarate (1:0.5)] | Antagonist | – | – | – |
| Cc1ccc(C2CCCN2S(=O)(=O)c2ccc(C)cc2)cc1 (racemic) [Example 19, (RS)-1-(Toluene-4-sulfonyl)-2-p-tolyl-pyrrolidine] | Agonist | agonistic activty | – | – |
| O=S(=O)(c1ccc(Cl)cc1)N1CCCC1c1ccc(F)c(F)c1 (racemic) [Example 39, (RS)-1-(4-Chloro-benzenesulfonyl)-2-(3,4-difluoro-phenyl)-pyrrolidine] | Agonist | agonistic activty | – | – |
| CCc1ccc(C2CCCN2S(=O)(=O)c2ccc(C)cc2)cc1 (racemic) [Example 78, (RS)-2-(4-Ethyl-phenyl)-1-(toluene-4-sulfonyl)-pyrrolidine] | Agonist | agonistic activty | – | – |
| CN(C)c1ccc(C2CCCN2S(=O)(=O)c2ccc(Cl)cc2)cc1F (racemic) [Example 40, (RS)-1-(4-Chloro-benzenesulfonyl)-2-(4-dimethylamino-3-fluoro-phenyl)-pyrrolidine] | Agonist | agonistic activty | – | – |
| O=S(=O)(c1ccc(Cl)cc1)N1CCCC1c1ccc(Cl)cc1 (racemic) [Example 9, (RS)-1-(4-Chloro-benzenesulfonyl)-2-(4-chloro-phenyl)-pyrrolidine] | Agonist | agonistic activty | – | – |
| O=S(=O)(c1ccc(F)cc1)N1CCCC1c1cccs1 (racemic) [Example 35, (RS)-1-(4-Fluoro-benzenesulfonyl)-2-thien-2-yl-pyrrolidine] | Antagonist | – | – | – |
